{"source": "paper PMC6420499", "about": "(Scientific Reports, 2019)", "key": {"[1]": {"assay": "In vitro to in vivo scaling of atRA metabolism, fetal liver extraction ratio (well-stirred model)", "type": "in vitro ADME, human", "settings": "at any gestational age"}, "[2]": {"assay": "atRA metabolite formation in human placental S9 preparations", "type": "in vitro ADME", "settings": "preliminary studies, data not shown"}, "[3]": {"assay": "Metabolite identification, atRA in representative human fetal liver S9 fractions", "type": "in vitro ADME", "settings": "5 µM atRA, 0.3 mg S9 protein in 1 mL, 10 min, two representative livers", "protocol": "(§1) The incubations were quenched with ethyl acetate, metabolites extracted as previously described[15] and the product formation was then measured by LC-MS/MS as described below. For fetal liver S9 incubations two representative livers were chosen based on the mRNA expression levels of CYP3A7 and CYP26A1. […] After a pre-incubation of 5 min the reactions were initiated with the addition of NADPH (1 mM final concentration) and allowed to proceed for 10 min.\n(§2) In brief, analytes were separated using a gradient elution as follows: starting from 10:90 acetonitrile: aqueous to 1:1 acetonitrile: aqueous over 0.5 min then increased to 85:15 acetonitrile: aqueous over 4 min and then after a 0.1 min hold increased to 95:5 acetonitrile: aqueous held for 2.5 min. The aqueous phase contained 0.1 % formic acid throughout. […] Retinoid concentrations were quantified using Analyst software and peak height ratios between the analyte and the internal standard (4-oxo-RA-d3)."}, "recombinant CYP26A1 [4]": {"molecular_target": "T1, recombinant CYP26A1 (Homo sapiens, UniProt O43174)", "T1 construct": "made in house; host or cells: baculovirus infected insect cells (membrane fractions)", "T1 sequence (O43174 1-497)": "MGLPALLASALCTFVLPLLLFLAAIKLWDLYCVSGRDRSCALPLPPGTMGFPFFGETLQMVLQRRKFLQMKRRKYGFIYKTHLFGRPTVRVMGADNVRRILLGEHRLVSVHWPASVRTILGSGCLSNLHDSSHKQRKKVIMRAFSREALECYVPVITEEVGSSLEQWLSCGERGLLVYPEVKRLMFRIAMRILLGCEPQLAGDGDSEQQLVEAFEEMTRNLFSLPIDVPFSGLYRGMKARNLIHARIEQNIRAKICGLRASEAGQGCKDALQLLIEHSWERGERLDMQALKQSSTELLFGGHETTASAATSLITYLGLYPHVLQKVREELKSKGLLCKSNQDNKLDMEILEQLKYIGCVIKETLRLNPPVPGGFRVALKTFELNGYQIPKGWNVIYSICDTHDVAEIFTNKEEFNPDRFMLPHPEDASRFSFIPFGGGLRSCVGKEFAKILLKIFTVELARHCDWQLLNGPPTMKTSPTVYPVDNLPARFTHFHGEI", "assay": "Metabolite identification, atRA with recombinant CYP26A1", "type": "in vitro ADME", "settings": "5 µM atRA, 5 pmol CYP26A1, 2 min", "protocol": "as §1, §2"}, "recombinant CYP26B1": {"molecular_target": "T2, recombinant CYP26B1 (Homo sapiens, UniProt Q9NR63)", "T2 construct": "made in house; host or cells: baculovirus infected insect cells (membrane fractions)", "T2 sequence (Q9NR63 1-512)": "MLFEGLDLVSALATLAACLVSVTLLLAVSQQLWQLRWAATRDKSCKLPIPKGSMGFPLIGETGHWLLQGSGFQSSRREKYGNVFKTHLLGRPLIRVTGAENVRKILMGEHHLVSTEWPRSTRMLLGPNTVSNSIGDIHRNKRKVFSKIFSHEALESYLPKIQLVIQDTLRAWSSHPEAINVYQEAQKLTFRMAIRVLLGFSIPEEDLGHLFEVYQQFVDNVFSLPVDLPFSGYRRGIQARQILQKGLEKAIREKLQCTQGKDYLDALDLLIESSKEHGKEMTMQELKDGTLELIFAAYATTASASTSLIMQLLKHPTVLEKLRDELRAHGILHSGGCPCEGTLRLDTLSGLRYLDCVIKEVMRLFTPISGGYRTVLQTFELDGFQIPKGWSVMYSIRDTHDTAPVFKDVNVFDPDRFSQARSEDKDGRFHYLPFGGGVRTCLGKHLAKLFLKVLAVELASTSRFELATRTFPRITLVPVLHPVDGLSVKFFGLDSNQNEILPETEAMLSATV", "assay": "Metabolite identification, atRA with recombinant CYP26B1", "type": "in vitro ADME", "settings": "5 µM atRA, 5 pmol CYP26B1, 10 min", "text": "(§3) The aqueous phase contained 0.1 % formic acid throughout."}, "[5]": {"parameters": "method as in PMID 20513361", "settings": "value used for scaling; cited from earlier work"}, "[6]": {"test_system": "atRA metabolite formation in human fetal liver S9 fractions", "assay": "Inhibition of atRA metabolite formation in human fetal liver S9 fractions by CYP selective inhibitors", "type": "in vitro ADME", "settings": "ketoconazole 10 µM, atRA 500 nM, S9 fractions from four representative donors, vs vehicle control", "protocol": "(§4) Talarozole was chosen as the CYP26 inhibitor based on previous characterization of its potency towards CYP26A1 and CYP26B1[34]. Ketoconazole was included in the analysis as it is a well characterized pan-CYP inhibitor with high potency both towards CYP3A7 and CYP26s[16],[34]. […] All of the samples were extracted and analyzed by HPLC-MS/MS. […] Incubations were performed as described above for fetal livers and analyzed for metabolite formation by HPLC-MS/MS. The percent inhibition was calculated by comparing the metabolite formation velocity in the presence of the inhibitor to vehicle control.\nas §3"}, "CYP26": {"test_system": "CYP26", "parameters": "method as in PMID 21521770", "settings": "cited from earlier work"}, "CYP3A7": {"test_system": "CYP3A7", "parameters": "method as in PMID 21521770", "settings": "cited from earlier work"}, "[7]": {"test_system": "CYP3A7 (atRA metabolite formation in fetal liver S9)", "assay": "Inhibition of atRA metabolite formation in human fetal liver S9 fractions by CYP selective inhibitors", "type": "in vitro ADME", "settings": "human, human fetal liver S9 fractions, probe atRA (all-trans retinoic acid), 500 nM", "protocol": "as §4, §3"}, "recombinant CYP3A7": {"molecular_target": "T3, recombinant CYP3A7 (Homo sapiens, UniProt P24462)", "T3 construct": "purchased BD Gentest", "T3 sequence (P24462 whole entry)": "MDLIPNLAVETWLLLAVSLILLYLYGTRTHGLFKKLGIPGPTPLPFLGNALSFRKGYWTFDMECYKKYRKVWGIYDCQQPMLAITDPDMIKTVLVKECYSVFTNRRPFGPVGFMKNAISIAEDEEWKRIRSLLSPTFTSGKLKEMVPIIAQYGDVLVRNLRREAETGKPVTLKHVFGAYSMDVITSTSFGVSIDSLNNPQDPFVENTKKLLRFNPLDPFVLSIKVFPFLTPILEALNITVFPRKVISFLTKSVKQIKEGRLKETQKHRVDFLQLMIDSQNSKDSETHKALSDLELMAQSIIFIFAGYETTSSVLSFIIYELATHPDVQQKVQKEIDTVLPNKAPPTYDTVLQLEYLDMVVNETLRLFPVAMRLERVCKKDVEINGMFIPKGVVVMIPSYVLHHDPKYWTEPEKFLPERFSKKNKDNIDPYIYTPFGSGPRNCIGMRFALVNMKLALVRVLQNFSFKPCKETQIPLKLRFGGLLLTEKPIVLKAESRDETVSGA", "assay": "Inhibition of recombinant CYP3A7 mediated 4-OH-RA formation", "type": "biochemical", "settings": "CYP3A7 5 pmol/mL, 10 min", "protocol": "as §4, §3"}, "[8]": {"test_system": "CYP26 (atRA metabolite formation in fetal liver S9)", "assay": "Inhibition of atRA metabolite formation in human fetal liver S9 fractions by CYP selective inhibitors", "type": "in vitro ADME", "settings": "human, human fetal liver S9 fractions, probe atRA (all-trans retinoic acid), 500 nM", "protocol": "as §4, §3"}, "recombinant CYP26A1 [9]": {"molecular_target": "T1, recombinant CYP26A1", "assay": "Inhibition of recombinant CYP26A1 mediated 4-OH-RA formation", "type": "biochemical", "settings": "talarozole 200 nM, atRA 500 nM, CYP26A1 2 pmol/mL, 2 min", "protocol": "as §4, §3"}}}
{"smiles": "CC1=C(/C=C/C(C)=C/C=C/C(C)=C/C(=O)O)C(C)(C)CCC1", "note": "[atRA, All-trans-retinoic acid]", "values": [{"measurement": "maternal atRA that could be extracted by fetal liver", "setting": "[1]", "result": "≤ 5", "unit": "%"}, {"measurement": "formation of atRA metabolites", "setting": "[2]", "result": "did not observe any formation of atRA metabolites"}, {"measurement": "atRA metabolites observed", "setting": "[3]", "result": "only the formation of 4-OH-RA and its metabolite 4-oxo-RA was observed"}, {"measurement": "atRA metabolites formed", "setting": "recombinant CYP26A1 [4]", "result": "hydroxylated atRA at multiple sites"}, {"measurement": "atRA metabolites formed", "setting": "recombinant CYP26B1", "result": "hydroxylated atRA at multiple sites"}, {"measurement": "plasma unbound fraction (fu)", "setting": "[5]", "result": 0.01}]}
{"smiles": "CC(=O)N1CCN(c2ccc(OCC3COC(Cn4ccnc4)(c4ccc(Cl)cc4Cl)O3)cc2)CC1", "note": "(stereo not drawn) [ketoconazole]", "values": [{"measurement": "decrease in atRA metabolite formation", "setting": "[6]", "result": "> 95", "unit": "%"}, {"measurement": "inhibition of CYP26", "setting": "CYP26", "result": "inhibits"}, {"measurement": "inhibition of CYP3A7", "setting": "CYP3A7", "result": "inhibits"}]}
{"smiles": "OC(Cn1cncn1)(Cn1cncn1)c1ccc(F)cc1F", "note": "[fluconazole]", "values": [{"measurement": "inhibition at 200 µM", "setting": "[7]", "result": "30 to 60", "unit": "%"}, {"measurement": "inhibition of CYP3A7 mediated 4-OH-atRA formation", "setting": "recombinant CYP3A7; fluconazole 300 μM, atRA 10 µM", "result": "confirmed"}, {"measurement": "inhibition of CYP26", "setting": "CYP26", "result": "not to inhibit"}]}
{"smiles": "CCC(CC)C(c1ccc(Nc2nc3ccccc3s2)cc1)n1cncn1", "note": "(stereo not drawn) [talarozole]", "values": [{"measurement": "inhibition at 200 nM", "setting": "[8]", "result": "30 to 40", "unit": "%"}, {"measurement": "inhibition of CYP3A7 mediated 4-OH-RA formation", "setting": "recombinant CYP3A7; talarozole 200 nM, atRA 500 nM", "result": "did not significantly inhibit"}, {"measurement": "inhibition of CYP26A1", "setting": "recombinant CYP26A1 [9]", "result": "reproduced"}]}
